This note sets out measurements from patent US20160158317A1, “Antimicrobial Peptide Variants and Polynucleotides Encoding Same” (Adenium Biotech A/S, priority 2010, published 2016).

Where a SMILES comes first, the peptide text is derived from it. Bridges are numbered along the chain shown (N, C = ends).

A short description of the data set: Determination of the protein binding (90% serum, 30 kDa filter, HPLC). The data set is classed as in vitro ADME. The note with it: serum. How it is done:
Protein binding assays were performed as follows. The purified peptides were mixed with 90% serum and centrifuged through a 30 kDa filter. The ultra-filtrate and the non filtrated serum samples were quantified by HPLC measurements and the protein binding was subsequently calculated.
Take `CC(C)C[C@@H]1NC(=O)[C@H](CC(N)=O)NC(=O)[C@H](Cc2c[nH]c3ccccc23)NC(=O)[C@@H](NC(=O)[C@H](Cc2ccccc2)NC(=O)CN)CSSC[C@@H](C(=O)N[C@@H](CC(N)=O)C(=O)O)NC(=O)[C@H](CCCNC(=N)N)NC(=O)[C@H](CCCNC(=N)N)NC(=O)[C@H](Cc2c[nH]cn2)NC(=O)[C@@H]2CSSC[C@H](NC1=O)C(=O)N[C@@H](C(C)C)C(=O)N[C@@H](Cc1ccc(O)cc1)C(=O)N[C@@H](CCCNC(=N)N)C(=O)N[C@@H](CC(N)=O)C(=O)NCC(=O)N[C@@H](C(C)C)C(=O)N[C@@H](CCCNC(=N)N)C(=O)N[C@@H](C(C)C)C(=O)N2` [compound 263] (H-GFCWNLCVYRNGVRVCHRRCN-OH; disulfide 3-20, 7-16 (inferred); N-terminus and C-terminus assumed): the fraction unbound is 0.2.

As for `CC(C)[C@@H]1NC(=O)CNC(=O)[C@H](CC(N)=O)NC(=O)[C@H](CCCNC(=N)N)NC(=O)[C@H](Cc2ccc(O)cc2)NC(=O)[C@H](C)NC(=O)[C@@H]2CSSC[C@H](NC(=O)[C@H](C(C)C)NC(=O)[C@H](CCCNC(=N)N)NC1=O)C(=O)N[C@@H](Cc1ccc(O)cc1)C(=O)N[C@@H](CCCNC(=N)N)C(=O)N[C@@H](CCCNC(=N)N)C(=O)N[C@H](C(=O)N[C@@H](CC(N)=O)C(=O)O)CSSC[C@H](NC(=O)[C@H](Cc1ccccc1)NC(=O)CN)C(=O)N[C@@H](Cc1c[nH]c3ccccc13)C(=O)N[C@@H](Cc1ccc(O)cc1)C(=O)N[C@@H](C(C)C)C(=O)N2` [compound 21] (H-GFCWYVCAYRNGVRVCYRRCN-OH; disulfide 3-20, 7-16 (inferred); N-terminus and C-terminus assumed), the free fraction (fraction unbound) was 0.015.

For the compound `CC(C)[C@@H]1NC(=O)CNC(=O)[C@H](CC(N)=O)NC(=O)[C@H](CCCNC(=N)N)NC(=O)[C@H](Cc2ccc(O)cc2)NC(=O)[C@H](C(C)C)NC(=O)[C@@H]2CSSC[C@H](NC(=O)[C@H](Cc3ccc(O)cc3)NC(=O)[C@H](CCCNC(=N)N)NC1=O)C(=O)N[C@@H](Cc1c[nH]cn1)C(=O)N[C@@H](CCCNC(=N)N)C(=O)N[C@@H](CCCNC(=N)N)C(=O)N[C@H](C(=O)N[C@@H](CC(N)=O)C(=O)O)CSSC[C@H](NC(=O)[C@H](Cc1ccccc1)NC(=O)CN)C(=O)N[C@@H](Cc1c[nH]c3ccccc13)C(=O)N[C@@H](CC(N)=O)C(=O)N[C@@H](C(C)C)C(=O)N2` [compound 254] (H-GFCWNVCVYRNGVRYCHRRCN-OH; disulfide 3-20, 7-16 (inferred); N-terminus and C-terminus assumed), the free fraction (fraction unbound) is 0.23.

For `CC(C)[C@@H]1NC(=O)[C@@H]2CSSC[C@H](NC(=O)[C@H](C)NC(=O)[C@H](CCCNC(=N)N)NC(=O)[C@H](CCCCN)NC(=O)CNC(=O)[C@H](CC(N)=O)NC(=O)[C@H](CCCNC(=N)N)NC(=O)[C@H](Cc3ccc(O)cc3)NC1=O)C(=O)N[C@@H](Cc1ccc(O)cc1)C(=O)N[C@@H](CCCNC(=N)N)C(=O)N[C@@H](CCCNC(=N)N)C(=O)N[C@H](C(=O)N[C@@H](CC(N)=O)C(=O)O)CSSC[C@H](NC(=O)[C@H](Cc1ccccc1)NC(=O)CN)C(=O)N[C@@H](Cc1c[nH]c3ccccc13)C(=O)N[C@@H](Cc1ccc(O)cc1)C(=O)N[C@@H](C)C(=O)N2` [compound 340] (H-GFCWYACVYRNGKRACYRRCN-OH; disulfide 3-20, 7-16 (inferred); N-terminus and C-terminus assumed), the fraction unbound was 0.02.

On to `CC(C)[C@@H]1NC(=O)[C@H](CCCNC(=N)N)NC(=O)CNC(=O)CNC(=O)[C@H](CC(N)=O)NC(=O)[C@H](CCCNC(=N)N)NC(=O)[C@H](Cc2ccc(O)cc2)NC(=O)[C@H](C(C)C)NC(=O)[C@@H]2CSSC[C@H](NC1=O)C(=O)N[C@@H](Cc1ccc(O)cc1)C(=O)N[C@@H](CCCNC(=N)N)C(=O)N[C@@H](CCCNC(=N)N)C(=O)N[C@H](C(=O)N[C@@H](CC(N)=O)C(=O)O)CSSC[C@H](NC(=O)[C@H](Cc1ccccc1)NC(=O)CN)C(=O)N[C@@H](Cc1c[nH]c3ccccc13)C(=O)N[C@@H](Cc1ccc(O)cc1)C(=O)N[C@@H](C(C)C)C(=O)N2` [compound 30] (H-GFCWYVCVYRNGGRVCYRRCN-OH; disulfide 3-20, 7-16 (inferred); N-terminus and C-terminus assumed), for which the fraction unbound was 0.01.
